One compound from patent US20090136720A1, “Azo Compound, Ink Composition, Recording Method and Colored Article” (priority 2006, published 2009) can be followed below.

A short description of this data set: Solubility of the azo compound. The note with it: water; sodium salt. The data set is classed as physicochemical.

In the case of `Cc1cc(N=Nc2c(S(=O)(=O)O)cc3c(S(=O)(=O)O)c(N=Nc4cc(S(=O)(=O)O)c5cc(S(=O)(=O)O)c(N=Nc6ccc([N+](=O)[O-])cc6S(=O)(=O)O)c(O)c5c4N)ccc3c2O)c(OCCCS(=O)(=O)O)cc1N=Nc1cc(S(=O)(=O)O)cc2cc(S(=O)(=O)O)cc(O)c12` [Compound No. 3], the solubility (usually the dissolved amount per volume that the medium holds) is at least 100 mg/mL.
